# Test results: patent US20210030703A1, “USE OF CALORIC RESTRICTION MIMETICS FOR POTENTIATING CHEMO-IMMUNOTHERAPY FOR THE TREATMENT OF CANCERS” (INSERM (INSTITUT NATIONAL DE LA SANTÉ ET DE LA RECHERCHE …, priority 2018, published 2021)
# Columns and labels:
# PD-1 = PD-1 expression in tumors; type: in vivo, C57B1/6 mice; settings: MTX alone or together with fasting or CRMs; data not shown
# Experimental: 3 or 11 days post-chemotherapy (d3 or d11), mice were euthanized and the tumors were withdrawn and placed in gentleMACS C tubes (ref 130-096-334 from Miltenyi Biotec™) previously filled with 1 ml of DMEM or RPMI medium, and immediately put on ice. After a mechanical (with scissors) and chemical digestion (thanks to the tumor dissociation kit and the gentleMACS Octo Dissociator, ref 130-096-730 and 130-096-427, respectively, from Miltenyi Biotec™), tumors were filtered (using MACS smartstrainers […], ref 130-110-916 from Miltenyi Biotec™), washed twice with PBS and distributed in a 96-wells round bottom plate.
# Then, cells were stained with a live dead dye (ref L34959 from ThermoFisher Scientific™) and an FCblock receptor targeting antibody. […] Finally, cells were resuspended in FACS buffer and analyzed on a flow cytometer BD LSR II.
# CTLA-4 = CTLA-4 expression in tumors; type: in vivo, C57B1/6 mice; settings: MTX alone or together with fasting or CRMs; data not shown
structure (smiles),measurement,setting,value
"O=C1c2c(O)ccc(O)c2C(=O)c2c(NCCNCCO)ccc(NCCNCCO)c21 [MTX, mitoxantrone]",Expression of PD-1,PD-1,No changes
same,Expression of CTLA-4,CTLA-4,No changes
